In assay [1] the test system is BRN2 (POU3F2), luciferase reporter assay. Description: cells. To be noted: for inhibition at 10 µM: read-out: % of Inhibition (Luciferase assay) / 10µM; for inhibition at 30 µM: read-out: % of Inhibition (Luciferase assay) / 30µM; for % of Inhibition (Luciferase assay) / 10µM / % of Inhibition (Luciferase assay) / 30µM: inhibitor.
For assay [2], the target named is T1, BRN2 (POU3F2), purified BRN2^WT (Homo sapiens, UniProt P20265).
T1 sequence (P20265 264-415): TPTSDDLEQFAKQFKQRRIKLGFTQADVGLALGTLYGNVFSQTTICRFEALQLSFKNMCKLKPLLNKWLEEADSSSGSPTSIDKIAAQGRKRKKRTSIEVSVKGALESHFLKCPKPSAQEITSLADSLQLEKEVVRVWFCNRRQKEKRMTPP
Nature of the assay: microscale thermophoresis. It is filed as binding. On the technique in general: MST reads how a fluorescent partner responds to local heating, with and without ligand.

As usually defined, the Kd is the free concentration of one partner at which half of the binding sites on the other are occupied at equilibrium, for simple one-to-one binding. A lower Kd goes with tighter binding.

Take `O=C(CSc1nc2ccccc2[nH]1)c1ccccc1` [B-15]: in assay [1], the inhibition at 10 µM was -5% and the inhibition at 30 µM is 9.16%. The corresponding values for `c1ccc(NCc2csc3ccccc23)cc1` [B-11] are -24.8% and -22.7%. In the case of `Clc1ccc2cc(-c3csc(-c4ccc[nH]4)n3)oc2c1` [B18-94], in assay [2], the Kd was determined as 2.04 µM. In the case of `COc1ccc(/C=N\Nc2nc3ccccc3[nH]2)cc1O` [B-65], in assay [1], the inhibition at 10 µM was 31% and the inhibition at 30 µM turned out to be 51%.

In the case of `C/C(=N/Nc1nc2ccccc2[nH]1)c1ccc(F)cc1` [B-48], in assay [1], the inhibition at 10 µM was -46.2% and the inhibition at 30 µM was -6.79%. In the same order, the values of `Cc1ccc(-c2noc(-c3ccncc3)n2)cc1` [B-26] are -147% and -38.9%. In the case of `c1ccc(-c2ccc(-c3nc4ccccc4[nH]3)o2)cc1` [B-66], in assay [1], the inhibition at 10 µM was determined as 11% and the inhibition at 30 µM amounted to 48%.

In the case of `Cn1c(-c2ccc(CO)o2)nc2ccccc21` [B-56], in assay [1], the inhibition at 10 µM was -114% and the inhibition at 30 µM was -134%. In the same order, the values of `Cn1c(-c2ccco2)nc2ccccc21` [B-57] are -138% and -172%.

On to `Clc1ccccc1-c1ccc(-c2nc3ccccc3[nH]2)o1` [B-68], for which, in assay [1], the inhibition at 10 µM turned out to be 54.9% and the inhibition at 30 µM was found to be 94.4%. In the same order, the values of `Oc1ccc(Cl)cc1/C=N/Nc1nc2ccccc2[nH]1` [B-30] are -6.38% and 28.1%.

With `Oc1ccc(/C=N\Nc2nc3ccccc3[nH]2)cc1Cl` [B-62], in assay [1], the inhibition at 10 µM is 88.2% and the inhibition at 30 µM was determined as 91.6%. The corresponding values for `O=C(CSc1nc2ccccc2[nH]1)c1ccc(Cl)cc1` [B-16] are 20.8% and 44.7%. In the same order, the values of `Cc1ccc(NCc2c[nH]c3ccccc23)cc1` [B-19] are -4.93% and 62%. The corresponding values for `C/C(=N\Nc1nc2ccccc2[nH]1)c1ccc(O)cc1` [B-46] are 6.41% and 46.7%. As for `O=C(Nc1cc(Cl)cc(Cl)c1)c1ccccc1` [B-13], in assay [1], the “% of Inhibition (Luciferase assay) / 10µM” value is reported as -8.507% and the “% of Inhibition (Luciferase assay) / 30µM” value is 43.29%. For `COc1ccccc1/C=N\Nc1nc2ccccc2[nH]1` [B-61], in assay [1], the inhibition at 10 µM was -172% and the inhibition at 30 µM was -70.4%. In the same order, the values of `Brc1ccc(-c2ccc(-c3nc4ccccc4[nH]3)o2)c(Br)c1` [B-69] are 90% and 94%. As to `CC/C(=N/Nc1nc2ccccc2[nH]1)c1cccc(Cl)c1` [B-37], in assay [1], the inhibition at 10 µM was determined as 19.1% and the inhibition at 30 µM stood at 80.2%. For the molecule `Clc1cccc(-c2ccc(-c3nc4cc(Cl)ccc4[nH]3)o2)c1` [B-72], in assay [1], the inhibition at 10 µM was -50.2% and the inhibition at 30 µM amounted to 87.1%. In the same order, the values of `C/C(=N/Nc1nc2ccccc2[nH]1)c1ccccc1Cl` [B-41] are 18.8% and 74.1%. For `O=C(Nc1cc(Cl)cc(Cl)c1)c1ccccc1` [B-10], in assay [1], the “% of Inhibition (Luciferase assay) / 10µM” value was -70.87% and the “% of Inhibition (Luciferase assay) / 30µM” value turned out to be 68.05%. With `COc1ccc(O)c(/C=N/Nc2nc3ccccc3[nH]2)c1` [B-29], in assay [1], the inhibition at 10 µM is -44.2% and the inhibition at 30 µM is 22.8%. The corresponding values for `Oc1ccc(Br)cc1/C=N/Nc1nc2ccccc2[nH]1` [B-52] are 27.1% and 21.3%. In the same order, the values of `Oc1ccc(/C=N/Nc2nc3ccccc3[nH]2)c(O)c1O` [B-43] are 12.5% and -1.16%. The corresponding values for `Cc1ccccc1/C=N\Nc1nc2ccccc2[nH]1` [B-60] are -23.8% and 25.5%. On to `C/C(=N\Nc1nc2ccccc2[nH]1)c1ccccc1` [B-58], for which, in assay [1], the inhibition at 30 µM was -58%.

On to `Oc1ccc(/C=N/Nc2nc3ccccc3[nH]2)c(O)c1` [B-49], for which, in assay [1], the inhibition at 10 µM is 46.1% and the inhibition at 30 µM came to 70.8%. For `c1ccc(-c2csc(-c3ccccn3)n2)cc1` [B-24], in assay [1], the inhibition at 10 µM is -145% and the inhibition at 30 µM is -67.1%. Consider `C/C(=N\Nc1nc2ccccc2[nH]1)c1ccc2ccccc2c1O` [B-45], for which, in assay [1], the inhibition at 10 µM was 77.2% and the inhibition at 30 µM is 91.8%. The corresponding values for `Oc1ccc2ccccc2c1/C=N/Nc1nc2ccccc2[nH]1` [B-51] are -12.8% and 76.8%.

In the case of `Cc1ccc(-c2nc3cc(N)ccc3n2C)o1` [B-63], in assay [1], the inhibition at 10 µM amounted to 22% and the inhibition at 30 µM stood at 44%.

In the case of `Oc1c(Cl)cc(Cl)cc1/C=N/Nc1nc2ccccc2[nH]1` [B-31], in assay [1], the inhibition at 10 µM is 22.6% and the inhibition at 30 µM was 12.7%. In the same order, the values of `Cc1cc(C(=O)Nc2ccccc2)c2ccccc2n1` [B-1] are 14.6% and 1.27%. In the same order, the values of `c1ccc(-c2ccc(N3CCOCC3)s2)cc1` [B-25] are -2.68% and 51.5%.

Regarding `Oc1ccccc1/C=N/Nc1nc2ccccc2[nH]1` [B-21], in assay [1], the inhibition at 10 µM is -1.45% and the inhibition at 30 µM is 24.8%.

In the case of `Clc1cc(Br)ccc1-c1ccc(-c2nc3ccccc3[nH]2)o1` [B-70], in assay [1], the inhibition at 10 µM turned out to be 88.1% and the inhibition at 30 µM came to 91.7%. In the case of `C/C(=N/Nc1nc2ccccc2[nH]1)c1ccccc1O` [B-42], in assay [1], the inhibition at 10 µM was -3.59% and the inhibition at 30 µM came out at 66.8%. On to `COc1ccc(CNc2ccc(C)cc2)c2ccccc12` [B-2], for which, in assay [1], the inhibition at 10 µM worked out at 19.6% and the inhibition at 30 µM is 24.4%. In the same order, the values of `c1ccc2c(c1)CC/C2=N/Nc1ccc2ccccc2n1` [B-39] are 99.1% and 99.9%. In the same order, the values of `Cn1c(-c2ccco2)nc2cc(N)ccc21` [B-64] are 19% and 39%. The corresponding values for `C/C(=N/Nc1nc2ccccc2[nH]1)c1ccc(C)cc1` [B-38] are 25.9% and 74.3%. On to `COc1ccc(CNc2ccccc2)c2ccccc12` [B-17], for which, in assay [1], the inhibition at 10 µM was 3.97% and the inhibition at 30 µM worked out at 12.2%.

The values above are taken from publication doi:10.1101/2022.05.04.490172v1 (biorxiv, 2022).
